In paper PMC1948018 (Retrovirology, 2007):

Assays:
large form of P-TEFb [1] = molecular target: T1, large form of P-TEFb (Homo sapiens, UniProt P50750); assay: Glycerol gradient analysis of large and free forms of P-TEFb in DRB-treated HeLa cells; format: cell-based
Method: HeLa cells were grown in 100 ml of DMEM with 10% FCS to a density of 4 × 10^5 cells/ml in spinner flasks. The cells were treated for 1 hour with no P-TEFb inhibitor or serial dilutions of DRB ranging from 0.1 to 10 μM. Cell lysates were prepared in Buffer A (10 mM KCl, 10 mM MgCl2, 10 mM HEPES, 1 mM EDTA, 1 mM DTT, 0.1% PMSF and EDTA-free complete protease inhibitor cocktail (Roche)) containing 150 mM NaCl and 0.5% NP-40. The lysates were clarified by centrifugation at 20,000 g for 10 minutes at 4°C. The supernatant was layered on top of a 5–45% glycerol gradient containing 150 mM NaCl. Gradients were spun at 190,000 g for 16 hours using a SW-55Ti rotor. The fractions were analyzed for the presence of P-TEFb complexes by immunoblotting with anti-cyclin T1 and anti-Cdk9 antibodies (Santa Cruz). Following incubation with the appropriate HRP-conjugated secondary antibodies, the blots were developed using SuperSignal DuraWest (Pierce). The western blots were imaged using a cooled CCD camera (UVP) and the amount of P-TEFb in the large and free form was quantitated using LabWorks 4.0 software.

large form of P-TEFb [2] = molecular target: T1, large form of P-TEFb; assay: Differential salt extraction, loss of large form of P-TEFb in HeLa cells; format: cell-based; details: for IC50: 1 hour treatment
Method: (§1) The cytosolic extracts were prepared by resuspending the cells in 80 μl of Buffer A (10 mM KCl, 10 mM MgCl2, 10 mM HEPES, 1 mM EDTA, 1 mM DTT, 0.1% PMSF and EDTA-free complete protease inhibitor cocktail (Roche)) with 0.5% NP-40 for 10 minutes on ice. The nuclei were spun down at 5,000 g for 5 minutes and the supernatant was saved as the cytosolic extract (CE). The nuclei were washed once with 200 μl of Buffer A with 0.5% NP-40 and re-pelleted. The nuclei were resuspended in 80 μl of Buffer B (450 mM NaCl, 1.5 mM MgCl2, 20 mM HEPES, 0.5 mM EDTA, 1 mM DTT, 0.1% PMSF and EDTA-free complete protease inhibitor cocktail (Roche)) and incubated on ice for 10 minutes. The lysates were clarified by centrifugation at 20,000 g for 10 minutes. The supernatant was saved as the nuclear extract (NE). Western blotting was performed with one fifth of the samples and the fraction of Cdk9 and cyclin T1 in the cytosolic and nuclear extracts was determined by imaging the chemiluminescent signal using a cooled CCD camera (UVP). The signal was quantitated using LabWorks 4.0 software and the data fit to a logistic dose response curve using TableCurve (Jandel Scientific) to determine the IC50 for loss of the large, low salt extractable form of P-TEFb.

large form of P-TEFb [3] = molecular target: T1, large form of P-TEFb; assay: Differential salt extraction, loss of large form of P-TEFb in Jurkat cells; format: cell-based; details: 1 hour treatment, increasing concentrations
Method: as §1

HIV-1p256 [4] = assay: microbe, parasite or virus in culture; format: cell-based; details: Human immunodeficiency virus 1, HeLa37, 40 h, read-out: IC50 of inhibition of HIV in HeLa 37 cells
Method: Short-term, single hit infectivity studies were performed as previously described. HeLa37 cells were plated in a 48-well tray and triplicate wells were infected with a dual-tropic HIV-1p256 and serial dilutions of P-TEFb inhibitor for 40 hours. The cells were fixed with 75% acetone/25% H2O and immunostained for HIV-1 antigens using human anti-HIV serum (a gift from Dr. Jack Stapleton, Univ. of Iowa) and HRP-conjugated goat anti-human IgG followed by staining with 3-amino-9-ethylcarbazole (AEC). The HIV-1 antigen-positive cells were counted. Experiments were repeated at least three times with each drug concentration in triplicate.

HeLa37 cells = assay: Cell viability (ATPlite) in HeLa37 cells; format: cell-based; details: performed in parallel to the 40 hour infectivity assay
Method: (§2) The impact of the P-TEFb inhibitors on cell viability was measured by ATPlite (Perkin Elmer). These cytotoxicity studies were performed as recommended by manufacturer utilizing a substrate solution that emits light in a manner proportional to the ATP present in each sample. Cells were plated in a 48-well format. Cells were treated with serial dilutions of the P-TEFb inhibitors and maintained for the indicated period of time. Mammalian cell lysis buffer was added to lyse the cells, followed by addition of the substrate solution. The amount of light produced in each well was measured in a TopCountR Microplate Scintillation and Luminescence Counter (Packard Instruments). Cytotoxicity experiments in HeLa37 cells were repeated at least three times with triplicates of each drug concentration.

[5] = molecular target: recombinant P-TEFb (Cdk9/cyclin T1) (Homo sapiens, UniProt P50750); parameters: method as in earlier work; details: preparation of DRB tested earlier; Peng et al (1998) Genes and Dev. 12: 755–762; read-out: IC50 of kinase inhibition; cited from earlier work
Sequence of recombinant P-TEFb (Cdk9/cyclin T1) (P50750 whole entry): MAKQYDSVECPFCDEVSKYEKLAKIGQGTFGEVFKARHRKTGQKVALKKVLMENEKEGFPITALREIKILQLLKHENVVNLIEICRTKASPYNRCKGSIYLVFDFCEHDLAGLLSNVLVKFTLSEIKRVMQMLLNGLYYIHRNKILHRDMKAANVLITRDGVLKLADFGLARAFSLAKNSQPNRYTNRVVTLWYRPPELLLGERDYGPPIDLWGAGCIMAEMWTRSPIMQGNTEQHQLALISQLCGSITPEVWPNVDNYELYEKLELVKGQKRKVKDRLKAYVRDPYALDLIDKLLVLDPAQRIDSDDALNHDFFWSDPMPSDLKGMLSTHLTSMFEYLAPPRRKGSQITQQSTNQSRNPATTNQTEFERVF
Sequence of recombinant P-TEFb (Cdk9/cyclin T1) (O60563 whole entry partner): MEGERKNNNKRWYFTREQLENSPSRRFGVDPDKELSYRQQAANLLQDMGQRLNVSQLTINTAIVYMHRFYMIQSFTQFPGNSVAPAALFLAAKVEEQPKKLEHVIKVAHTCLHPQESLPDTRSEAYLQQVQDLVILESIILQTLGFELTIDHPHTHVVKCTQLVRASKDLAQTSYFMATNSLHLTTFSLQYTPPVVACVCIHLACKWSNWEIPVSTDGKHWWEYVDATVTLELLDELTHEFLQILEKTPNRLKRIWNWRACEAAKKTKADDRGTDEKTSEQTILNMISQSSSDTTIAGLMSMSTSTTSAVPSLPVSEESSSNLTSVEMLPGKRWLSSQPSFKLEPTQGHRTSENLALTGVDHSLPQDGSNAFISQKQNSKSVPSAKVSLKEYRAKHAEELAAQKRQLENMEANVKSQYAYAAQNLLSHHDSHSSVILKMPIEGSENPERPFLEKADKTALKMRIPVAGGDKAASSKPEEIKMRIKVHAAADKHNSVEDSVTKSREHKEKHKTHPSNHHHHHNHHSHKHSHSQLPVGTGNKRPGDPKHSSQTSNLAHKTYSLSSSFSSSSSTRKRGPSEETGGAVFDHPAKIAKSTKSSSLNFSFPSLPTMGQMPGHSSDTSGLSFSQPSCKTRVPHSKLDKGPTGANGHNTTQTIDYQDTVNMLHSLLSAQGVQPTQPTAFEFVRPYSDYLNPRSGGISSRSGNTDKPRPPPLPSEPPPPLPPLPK

HIV-1p256 [6] = assay: Long-term HIV-1 replication in PBLs (RT activity in supernatants); format: cell-based; details: average of days 4, 8, 12, 16, read-out: average IC50 for inhibition of viral replication in PBLs
Method: (§3) Peripheral blood mononuclear cells (PBMCs) were isolated as previously described. Briefly, PBMCs were separated by centrifugation in lymphocyte separation medium (ICN Biomedicals, Solon, Ohio). The separated PBMCs were placed on gelatin and fibronectin-coated flasks in order to separate monocytes from mononuclear cells. […] PBLs were treated with 5 μg/ml of phytohaemagglutinin (PHA) for 72 hours prior to HIV infection and drug treatment. […] During long term studies in primary cells, supernatants were collected at 4, 8, 12 and 16 days post-infection, frozen at -80°C until analyzed and media was refreshed. […] Reverse transcriptase (RT) assays were performed on supernatants from HIV-1p256 infected cells as previously described. […] The mixture was incubated at 37°C for 3.5 hours and then blotted onto DE81 paper. The DE81 paper was washed 4 times with 3× SSPE and the amount of radioactivity that was incorporated into negative strand DNA was quantified with an InstantImager (Packard Instruments).

[7] = system: peripheral blood lymphocytes (PBLs); assay: Cell viability (ATPLite) in PBLs; format: cell-based, human; details: average of days 4, 8, 12, 16
Method: (§4) Human monocyte derived macrophages (MDMs) and peripheral blood lymphocytes (PBLs) cells were isolated from 350 ml of peripheral blood from healthy, HIV negative donors. Peripheral blood mononuclear cells (PBMCs) were isolated as previously described. Briefly, PBMCs were separated by centrifugation in lymphocyte separation medium (ICN Biomedicals, Solon, Ohio). The separated PBMCs were placed on gelatin and fibronectin-coated flasks in order to separate monocytes from mononuclear cells. Adherent monocytes were lifted with EDTA, washed and plated at a density of 1 × 10^6 per well in 48-well trays for infectivity and cytotoxicity studies. Monocytes were differentiated for 5 days in DMEM with 10% FCS, 10% human serum and 1% penicillin/streptomycin in order to generate monocyte-derived macrophages prior to HIV infections and drug treatment. PBLs were treated with 5 μg/ml of phytohaemagglutinin (PHA) for 72 hours prior to HIV infection and drug treatment. PHA-treated PBLs were plated at a density of 1 × 10^6 per well in 48-well trays and maintained in RPMI 1640 with 10% FCS, 1% Penicillin/Streptomycin and 10 units/ml of recombinant IL-2. Viral infection was performed in MDMs and PBLs by adding 10,000 RT units of HIV-1p256 stock per 1 × 10^6 cells. During long term studies in primary cells, supernatants were collected at 4, 8, 12 and 16 days post-infection, frozen at -80°C until analyzed and media was refreshed.
as §2, with “Cytotoxicity experiments in HeLa37 cells were repeated at least three times with triplicates of each drug concentration.” left out

HIV-1p256 [8] = assay: Long-term HIV-1 replication in MDMs (RT activity in supernatants); format: cell-based; details: Human immunodeficiency virus 1, pooled data of independent donors; days 4, 8, 12, 16; read-out: average IC50 for inhibition of HIV-1 replication in MDMs
Method: as §3

[9] = system: monocyte derived macrophages (MDMs); assay: Cell viability (ATPLite) in MDMs; format: cell-based, human; details: pooled data of independent donors; days 4, 8, 12, 16
Method: as §4, with “PHA-treated PBLs were plated at a density of 1 × 10^6 per well in 48-well trays and maintained in RPMI 1640 with 10% FCS, 1% Penicillin/Streptomycin and 10 units/ml of recombinant IL-2. Viral infection was performed in MDMs and PBLs by adding 10,000 RT units of HIV-1p256 stock per 1 × 10^6 cells.” left out
The impact of the P-TEFb inhibitors on cell viability was measured by ATPlite (Perkin Elmer). […] The amount of light produced in each well was measured in a TopCountR Microplate Scintillation and Luminescence Counter (Packard Instruments). […]

[10] = Phase I trials, highest tested doses; cited from earlier work
HIV-1 = system: HIV-1; parameters: method as in PMID 11461999; details: extensive 6 month study; cited from earlier work

T1 sequence (P50750 whole entry): as the sequence (P50750 whole entry) above
T1 sequence (O60563 whole entry, further chain): as the sequence (O60563 whole entry partner) above

With OC[C@H]1O[C@@H](n2cnc3cc(Cl)c(Cl)cc32)[C@H](O)[C@@H]1O [DRB, 5,6-dichloro-1-beta-D-ribofuranosylbenzimidazole] the “P-TEFb subunits left in the large form of the complex” value (large form of P-TEFb [1]; 10 μM DRB, 1 hour, without DRB approx. 60% of Cdk9 and 70% of cyclin T1) was “about 20%”, the IC50 (large form of P-TEFb [1]; HeLa cells, 1 hour treatment, Cdk9 and cyclin T1 immunoblot of glycerol gradient fractions, read-out: concentration causing a 50% reduction in large form within the cell) was ~3000 nM and the “P-TEFb subunits in cytosolic extracts prepared with low salt lysis buffer” value (large form of P-TEFb [2]; HeLa cells, 100 μM DRB, 1 hour, untreated approx. 50% in cytosolic extract) was “not detected”. For the same compound, the IC50 (large form of P-TEFb [2]; read-out: IC50 for the release of free form of P-TEFb from the large form of the complex, HeLa37 cells, low salt extraction) was ~4500 nM, the IC50 (large form of P-TEFb [2]; read-out: IC50 of loss of large form from HeLa cells: Cdk9, Cdk9 western blot) was 4200 ± 1600 nM and the IC50 (large form of P-TEFb [2]; read-out: IC50 of loss of large form from HeLa cells: Cyclin T1, cyclin T1 western blot) was 5000 ± 3000 nM. The “effect on amount of the large form of P-TEFb” value (large form of P-TEFb [3]) was “gradual reduction of the large form”, the IC50 (HIV-1p256 [4]) was 2600 nM and the “Hela37 cell cytotoxicity (LD50)” value (HeLa37 cells) was 20 µM. For the same compound, the IC50 [5] was 900 nM.

For CN1CC[C@H](c2c(O)cc(O)c3c(=O)cc(-c4ccccc4Cl)oc23)[C@H](O)C1 [Flavopiridol], the “effect on amount of the large form of P-TEFb” value (large form of P-TEFb [3]) was “gradual reduction in the amount of the large form”, the IC50 (HIV-1p256 [4]) was 9.5 nM and the “Hela37 cell cytotoxicity (LD50)” value (HeLa37 cells) was 0.225 µM. It also gave an IC50 (HIV-1p256 [6]; Human immunodeficiency virus 1, donor #1) of 35 nM, an IC50 (HIV-1p256 [6]; Human immunodeficiency virus 1, donor #2) of 40 nM and an IC50 (HIV-1p256 [6]; Human immunodeficiency virus 1, donor #3) of 61 nM. The “LD50 in PBLs” value ([7]; donor #1) was 143 nM, the “LD50 in PBLs” value ([7]; donor #2) was 81 nM and the “LD50 in PBLs” value ([7]; donor #3) was 123 nM. For the same compound, the IC50 (HIV-1p256 [8]) was 61 nM and the “LD50 in MDMs” value [9] was 99 nM.

In the case of CC[C@H](CO)Nc1nc(NCc2ccccc2)c2ncn(C(C)C)c2n1 [Seliciclib], the side effects caused [10] is given as “fatigue and elevated creatinine”.

For CC[C@H](CO)Nc1nc(NCc2ccccc2)c2ncn(C(C)C)c2n1 [roscovitine], the “generation of a resistant HIV-1 strain” value (HIV-1) is given as “unsuccessful”.
